Nine compounds from patent US10889555B2, “Sulfonamide compound or salt thereof” (Taiho Pharmaceutical Co., Ltd., priority 2016, dated 2021) can be followed below.

Where two headings read alike, the source gives them in different places.

One assay deals with HCC 1806 cells. Nature of the assay: Cell proliferation inhibitory effect on human breast cancer cell line (crystal violet, 72 hours). Format: cell-based. The following applies: read-out: Cell growth suppression IC50. In short, it runs like this:
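Cells were seeded at 2,000/well in RPMI-1640 with 10% FBS and grown 1 day, then exposed to compound for 72 h at 37° C, 5% CO2. After glutaraldehyde fixation and 0.05% crystal violet staining, extracted dye was read at 540 nm. IC50 (μM) came from growth inhibition relative to untreated and cell-free wells.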

In assay [1] the test system is various cancer cell lines as described in Table 21. The experiment in a line: Cell proliferation inhibitory effect on human cancer-derived cancer cell lines (method of Test Example 2). Format: cell-based. As for the experimental part:
Human derived breast cancer cell line HCC 1806 cells were daily passaged at a cell density not exceeding 80% in ATCC recommended Roswell Park Memorial Institute medium (RPMI-1640) containing 10% fetal bovine serum (FBS). In order to start the test of cell proliferation inhibitory activity, HCC 1806 cells were suspended in the above medium, after seeing at 180 μL in each well of a 96-well flat bottom plate so that the number of cells per well was 2,000, the cells were cultured at 37° C. for 1 day in an incubator containing 5% carbon dioxide gas. On the next day, the test compound was dissolved in DMSO, and 20 μL of a drug additive solution diluted serially with distilled water to 10 times of the final concentration was added to each well of the culture plate of the cells, and the cells were cultured at 37° C. for 72 hours in an incubator containing 5% carbon dioxide gas. After culturing for 72 hours, 20 μL of glutaraldehyde was added to each well and allowed to stand for 30 minutes, then the plate was washed 10 times with water and was dried. 100 μL of a stain solution (0.05% crystal violet in a 20% methanol solution) was added to each well and allowed to stand for 30 minutes, then the plate was washed 10 times with water and was dried. 100 μL of an extract solution (0.1 N NaH2PO4: 100% ethanol=1:1) was added to each well and mixed, and the mixture was measured at a wavelength of 540 nm using a plate reader (MTP-450 manufactured by Corona Electric Co., Ltd.). The growth inhibition rate was calculated from the following formula, and the concentration (IC50 (μM)) of a test compound inhibiting 50% was determined. Growth inhibition rate (%)={(C−B)−(T−B)}/(C−B)×100
According to the method of Test Example 2, the cell proliferation inhibitory effect on various cancer cell lines as described in Table 21 was evaluated.

Where [2] appears, read: A673, Ewing's sarcoma, 2000 cell/well, read-out: cell proliferation inhibitory effect, A673.
[3] abbreviates: A2780, Ovarian Cancer, 2000 cell/well, read-out: cell proliferation inhibitory effect, A2780.
[4] abbreviates: ACHN, Kidney Cancer, 2000 cell/well, read-out: cell proliferation inhibitory effect, ACHN.
[5] abbreviates: CFPAC-1, Pancreatic Cancer, 2000 cell/well, read-out: cell proliferation inhibitory effect, CFPAC-1.
Where [6] appears, read: DU-145, DU145, Prostate Cancer, 5000 cell/well, read-out: cell proliferation inhibitory effect, DU145.
The mark [7] stands for this setting: GB-1, Glioblastoma, 3000 cell/well, read-out: cell proliferation inhibitory effect, GB-1.
Where [8] appears, read: HCT-116, HCT116, Colorectal Cancer, 1000 cell/well, read-out: cell proliferation inhibitory effect, HCT116.
Where [9] appears, read: HLE, Liver Cancer, 3000 cell/well, read-out: cell proliferation inhibitory effect, HLE.
The mark [10] stands for this setting: MSTO-211H, Mesothelioma, 6000 cell/well, read-out: cell proliferation inhibitory effect, MSTO-211H.
Where [11] appears, read: NCI-H460, Lung Cancer, 1000 cell/well, read-out: cell proliferation inhibitory effect, NCI-H460.
[12] abbreviates: NCI-H2170, Lung Cancer, 5000 cell/well, read-out: cell proliferation inhibitory effect, NCI-H2170.
[13] abbreviates: NCI-H2228, Lung Cancer, 5000 cell/well, read-out: cell proliferation inhibitory effect, NCI-H2228.
[14] abbreviates: NUGC-3, Stomach Cancer, 2000 cell/well, read-out: cell proliferation inhibitory effect, NUGC-3.
Where [15] appears, read: RPMI7932, Melanoma, 4000 cell/well, read-out: cell proliferation inhibitory effect, RPMI7932.

In the case of `[2H]C([2H])([2H])C1(O)CCOc2c(S(=O)(=O)N[C@H](c3n[nH]c(=O)o3)[C@H](C)c3c(F)ccc(C)c3C)ccc(Cl)c21` (single isomer, unassigned) [Example 200A], the IC50 stood at 0.05 µM with HCC 1806 cells; 0.18 µM in assay [1] (setting [2]); 0.13 µM in assay [1] (setting [3]); 0.13 µM in assay [1] (setting [4]); 0.17 µM in assay [1] (setting [5]); 0.17 µM in assay [1] (setting [6]). Further, the IC50 in assay [1] (setting [7]) is 0.37 µM; in assay [1] (setting [8]) it was 0.22 µM; in assay [1] (setting [9]), 0.14 µM; in assay [1] (setting [10]), 0.17 µM; in assay [1] (setting [11]) it was 0.13 µM; in assay [1] (setting [12]) it was 0.49 µM. In addition, the figures for the IC50 in assay [1] (setting [13]), in assay [1] (setting [14]) and in assay [1] (setting [15]) were 0.5 µM, 0.27 µM and 0.43 µM, respectively.
Regarding `Cc1c(Cl)ccc(F)c1[C@@H](C)[C@H](NS(=O)(=O)c1ccc(Cl)c2c1OCCC2(C)O)c1n[nH]c(=O)o1` (single isomer, unassigned) [Example 209A], the IC50 in the assay with HCC 1806 cells is 0.06 µM; in assay [1] (setting [2]) it was 0.32 µM; in assay [1] (setting [3]), 0.3 µM; in assay [1] (setting [4]) it was 0.22 µM; in assay [1] (setting [5]), 0.33 µM; in assay [1] (setting [6]), 0.31 µM. For the same compound, the IC50 in assay [1] (setting [7]) was 0.64 µM; in assay [1] (setting [8]), 0.28 µM; in assay [1] (setting [9]), 0.26 µM; in assay [1] (setting [10]), 0.32 µM; in assay [1] (setting [11]), 0.25 µM; in assay [1] (setting [12]), 0.57 µM. Besides, the IC50 in assay [1] (setting [13]) worked out at 0.73 µM; in assay [1] (setting [14]), 0.4 µM; in assay [1] (setting [15]), 0.72 µM.
With `Cc1c(Br)ccc(F)c1[C@@H](C)[C@H](NS(=O)(=O)c1ccc(Cl)c2c1OCCC2(C)O)c1n[nH]c(=O)o1` (single isomer, unassigned) [Example 222A], the IC50 stood at 0.06 µM in the assay on HCC 1806 cells; 0.25 µM in assay [1] (setting [2]); 0.19 µM in assay [1] (setting [3]); 0.17 µM in assay [1] (setting [4]); 0.23 µM in assay [1] (setting [5]); 0.26 µM in assay [1] (setting [6]). For the same compound, the IC50 in assay [1] (setting [7]) was determined as 0.46 µM; in assay [1] (setting [8]) it was 0.27 µM; in assay [1] (setting [9]), 0.2 µM; in assay [1] (setting [10]), 0.27 µM; in assay [1] (setting [11]), 0.18 µM; in assay [1] (setting [12]), 0.52 µM. In addition, the IC50 in assay [1] (setting [13]) worked out at 0.48 µM; in assay [1] (setting [14]), 0.36 µM; in assay [1] (setting [15]), 0.51 µM.
Take `[2H]C([2H])([2H])C1(O)CCOc2c(S(=O)(=O)N[C@H](c3n[nH]c(=O)o3)[C@H](C)c3c(F)ccc(Cl)c3C)ccc(Cl)c21` (single isomer, unassigned) [Example 228A]: the IC50 in the assay on HCC 1806 cells (Homo sapiens, HCC1806, 72 h) was determined as 0.14 µM; in assay [1] (setting [2]), 0.4 µM; in assay [1] (setting [3]), 0.38 µM; in assay [1] (setting [4]), 0.32 µM; in assay [1] (setting [5]), 0.36 µM; in assay [1] (setting [6]), 0.34 µM. For the same compound, the IC50 in assay [1] (setting [7]) came to 0.85 µM; in assay [1] (setting [8]), 0.38 µM; in assay [1] (setting [9]), 0.29 µM; in assay [1] (setting [10]), 0.37 µM; in assay [1] (setting [11]), 0.31 µM; in assay [1] (setting [12]), 0.88 µM. In addition, the results for the IC50 in assay [1] (setting [13]), in assay [1] (setting [14]) and in assay [1] (setting [15]) were 0.74 µM, 0.51 µM and 0.65 µM, respectively.
For `Cc1ccc(F)c([C@@H](C)[C@H](NS(=O)(=O)c2ccc(Cl)c3c2OCCC3O)c2n[nH]c(=O)o2)c1C` (single isomer, unassigned) [Example 235A], the IC50 in the assay on HCC 1806 cells was found to be 0.13 µM; in assay [1] (setting [2]), 0.61 µM; in assay [1] (setting [3]) it was 0.4 µM; in assay [1] (setting [4]), 0.38 µM; in assay [1] (setting [5]) it was 0.35 µM; in assay [1] (setting [6]), 0.53 µM. Moreover, the IC50 in assay [1] (setting [7]) was 1.12 µM; in assay [1] (setting [8]), 0.48 µM; in assay [1] (setting [9]), 0.42 µM; in assay [1] (setting [10]) it was 0.39 µM; in assay [1] (setting [11]), 0.35 µM; in assay [1] (setting [12]) it was 1.1 µM. In addition, the IC50 in assay [1] (setting [13]) stood at 0.88 µM; in assay [1] (setting [14]), 0.71 µM; in assay [1] (setting [15]), 1.23 µM.
`Cc1ccc(F)c([C@@H](C)[C@H](NS(=O)(=O)c2ccc(Br)cc2C(N)=O)c2n[nH]c(=O)o2)c1C` [Example 1, 5-bromo-2-(N-((1 S,2R)-2-(6-fluoro-2,3-dimethylphenyl)-1-(5-oxo-4,5-dihydro-1,3,4-oxadiazol-2-yl)propyl)sulfamoyl)benzamide]: the IC50 with HCC 1806 cells (Homo sapiens, HCC1806, 72 h) is 0.16 µM; in assay [1] (setting [2]), 0.92 µM; in assay [1] (setting [3]), 0.63 µM; in assay [1] (setting [4]), 0.68 µM; in assay [1] (setting [5]) it was 0.54 µM; in assay [1] (setting [6]), 0.73 µM. Moreover, the IC50 in assay [1] (setting [7]) was determined as 1.56 µM; in assay [1] (setting [8]), 0.75 µM; in assay [1] (setting [9]), 0.56 µM; in assay [1] (setting [10]), 0.65 µM; in assay [1] (setting [11]) it was 0.57 µM; in assay [1] (setting [12]), 1.41 µM. In addition, the IC50 came out at 1.35 µM in assay [1] (setting [13]), 1.12 µM in assay [1] (setting [14]) and 1.74 µM in assay [1] (setting [15]).
As to `Cc1ccc(F)c([C@@H](C)[C@H](NS(=O)(=O)c2ccc(Cl)cc2C(N)=O)c2n[nH]c(=O)o2)c1C` [Example 5], the IC50 worked out at 0.2 µM in the assay with HCC 1806 cells (Homo sapiens, HCC1806, 72 h); 1.09 µM in assay [1] (setting [2]); 0.83 µM in assay [1] (setting [3]); 0.75 µM in assay [1] (setting [4]); 0.94 µM in assay [1] (setting [5]); 1.04 µM in assay [1] (setting [6]). Besides, the IC50 in assay [1] (setting [7]) was found to be 1.57 µM; in assay [1] (setting [8]), 0.91 µM; in assay [1] (setting [9]), 0.79 µM; in assay [1] (setting [10]), 0.7 µM; in assay [1] (setting [11]), 0.73 µM; in assay [1] (setting [12]) it was 1.89 µM. Moreover, the IC50 in assay [1] (setting [13]) stood at 1.27 µM; in assay [1] (setting [14]), 1.22 µM; in assay [1] (setting [15]), 2.67 µM.
`CCc1ccc(F)c([C@@H](C)[C@H](NS(=O)(=O)c2ccc(Cl)cc2C(N)=O)c2n[nH]c(=O)o2)c1C` [Example 11, 5-chloro-2-(N-((1S,2R)-2-(3-ethyl-6-fluoro-2-methylphenyl)-1-(5-oxo-4,5-dihydro-1,3,4-oxadiazol-2-yl)propyl)sulfamoyl)benzamide]: the IC50 turned out to be 0.64 µM in the assay on HCC 1806 cells (Homo sapiens, HCC1806, 72 h); 2.56 µM in assay [1] (setting [2]); 2.08 µM in assay [1] (setting [3]); 1.5 µM in assay [1] (setting [4]); 1.71 µM in assay [1] (setting [5]); 1.84 µM in assay [1] (setting [6]). Further, the IC50 in assay [1] (setting [7]) was 5.22 µM; in assay [1] (setting [8]), 2.3 µM; in assay [1] (setting [9]), 1.74 µM; in assay [1] (setting [10]) it was 1.54 µM; in assay [1] (setting [11]), 1.5 µM; in assay [1] (setting [12]), 3.9 µM. Also, the figures for the IC50 in assay [1] (setting [13]), in assay [1] (setting [14]) and in assay [1] (setting [15]) were 3.21 µM, 3.11 µM and 4.74 µM, respectively.
Consider `Cc1c(Cl)ccc(F)c1[C@@H](C)[C@H](NS(=O)(=O)c1ccc(Cl)cc1C(N)=O)c1n[nH]c(=O)o1` [Example 14, 5-chloro-2-(N-((1S,2R)-2-(3 chloro-6-fluoro-2-methylphenyl)-1-(5oxo-4,5-dihydro-1,3,4-oxadiazol-2-yl)propyl)sulfamoyl)benzamide], for which the IC50 in the assay with HCC 1806 cells (Homo sapiens, HCC1806, 72 h) was 0.56 µM; in assay [1] (setting [2]) it was 1.85 µM; in assay [1] (setting [3]) it was 1.71 µM; in assay [1] (setting [4]), 0.98 µM; in assay [1] (setting [5]) it was 1.42 µM; in assay [1] (setting [6]) it was 2.22 µM. The IC50 in assay [1] (setting [7]) is 4.6 µM; in assay [1] (setting [8]), 2.2 µM; in assay [1] (setting [9]), 1.3 µM; in assay [1] (setting [10]) it was 1.58 µM; in assay [1] (setting [11]) it was 1.35 µM; in assay [1] (setting [12]) it was 4.18 µM. For the same compound, the IC50 came to 3.53 µM in assay [1] (setting [13]), 2.83 µM in assay [1] (setting [14]) and 3.21 µM in assay [1] (setting [15]).
